Ki data for eleven molecules are collected here from ChEMBL document CHEMBL1146060, “Guanidinylated 2,5-dideoxystreptamine derivatives as anthrax lethal factor inhibitors” (Bioorg Med Chem Lett, 2006).

Structures are written as SMILES.

The target of the test is T1, Lethal factor (Bacillus anthracis, UniProt P15917).
T1 sequence (P15917 whole entry): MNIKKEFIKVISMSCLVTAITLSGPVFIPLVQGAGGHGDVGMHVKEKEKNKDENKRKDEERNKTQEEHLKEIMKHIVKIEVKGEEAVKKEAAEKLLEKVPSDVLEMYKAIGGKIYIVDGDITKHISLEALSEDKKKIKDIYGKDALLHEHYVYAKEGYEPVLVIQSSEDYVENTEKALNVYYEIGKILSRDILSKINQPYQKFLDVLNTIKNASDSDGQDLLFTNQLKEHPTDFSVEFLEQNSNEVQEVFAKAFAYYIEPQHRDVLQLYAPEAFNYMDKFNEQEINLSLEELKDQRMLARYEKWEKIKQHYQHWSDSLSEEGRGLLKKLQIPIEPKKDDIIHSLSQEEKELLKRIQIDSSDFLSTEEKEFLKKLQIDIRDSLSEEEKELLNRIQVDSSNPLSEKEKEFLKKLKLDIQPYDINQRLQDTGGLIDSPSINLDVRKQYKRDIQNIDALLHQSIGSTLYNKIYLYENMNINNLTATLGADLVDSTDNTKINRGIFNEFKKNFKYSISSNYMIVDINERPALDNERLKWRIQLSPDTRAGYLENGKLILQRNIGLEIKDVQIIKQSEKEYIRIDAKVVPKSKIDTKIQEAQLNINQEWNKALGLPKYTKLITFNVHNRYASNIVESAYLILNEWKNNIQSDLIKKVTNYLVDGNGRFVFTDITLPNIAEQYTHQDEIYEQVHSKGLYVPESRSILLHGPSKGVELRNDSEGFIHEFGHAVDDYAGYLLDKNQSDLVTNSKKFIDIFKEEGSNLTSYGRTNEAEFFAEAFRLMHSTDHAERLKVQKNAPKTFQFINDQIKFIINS
Briefly: Inhibition of Bacillus anthracis LF by FRET assay. The note with it: read-out: Ki app.
In the case of `N=C(N)N[C@H]1C[C@@H](NC(=N)N)[C@H](O)C[C@@H]1c1ccc2[nH]c(N)nc2c1`, the Ki is 154 µM.

In the case of `N=C(N)Nc1ccc([C@H]2C[C@@H](O)[C@H](NC(=N)N)C[C@@H]2NC(=N)N)cc1`, the Ki was found to be 14.9 µM.

For `N=C(N)Nc1cccnc1[C@H]1C[C@@H](O)[C@H](NC(=N)N)C[C@@H]1NC(=N)N`, the Ki was 4.1 µM.

`N=C(N)Nc1ccc(O[C@H]2C[C@@H](Oc3ccc(NC(=N)N)cc3NC(=N)N)[C@H](NC(=N)N)C[C@@H]2NC(=N)N)c(NC(=N)N)c1`: the Ki was 0.065 µM.

Regarding `N=C(N)Nc1ccc([C@H]2C[C@@H](O)[C@H](NC(=N)N)C[C@@H]2NC(=N)N)c(NC(=N)N)c1`, the Ki came out at 0.6 µM.

As for `N=C(N)Nc1ccccc1NC(=O)O[C@H]1C[C@@H](O)[C@H](NC(=N)N)C[C@@H]1NC(=N)N`, the Ki turned out to be 24.8 µM.

Turning to `N=C(N)Nc1ccccc1[C@H]1C[C@@H](O)[C@H](NC(=N)N)C[C@@H]1NC(=N)N`, the Ki was found to be 30.6 µM.

As to `Cc1cc(NC(=O)O[C@@H]2C[C@H](Oc3ccc(NC(=N)N)cc3N=C(N)N)[C@@H](N=C(N)N)C[C@H]2N=C(N)N)ccc1F`, the Ki came out at 0.5 µM.

For the molecule `N=C(N)Nc1ccc([C@H]2C[C@@H](O)[C@H](NC(=N)N)C[C@@H]2NC(=N)N)c2ccccc12`, the Ki amounted to 31.4 µM.

Regarding `N=C(N)Nc1cc(NC(=N)N)c2ccccc2c1[C@H]1C[C@@H](O)[C@H](NC(=N)N)C[C@@H]1NC(=N)N`, the Ki is 10.7 µM.

Take `N=C(N)Nc1ccc([C@H]2C[C@@H](O)[C@H](NC(=N)N)C[C@@H]2NC(=N)N)nc1`: the Ki worked out at 6.6 µM.
